Laboratory results from US8835479B2, “Agent for fungal dermatitis” (Nihon Nohyaku Co., Ltd., priority 2007, dated 2014).

Test system: Malassezia restricta clinical isolate (R-4)
Assay: Treatment effect on guinea pig seborrheic dermatitis model
Assay type: in vivo
Conditions: 1% luliconazole cream, 0.1 mL/inoculation site/day for 3 days, compared with 2% ketoconazole cream
Description: Efficacy Evaluation Test 2. Treatment Effect on Guinea Pig Seborrheic Dermatitis Model
A guinea pig seborrheic dermatitis model was prepared using Malassezia restricta (Malassezia (M.) restricta) as a pathogenic fungus, and a skin symptom improving effect and a mycological treatment effect of 1% luliconazole cream were evaluated. As a comparative drug, 2% ketoconazole cream was used.
Luliconazole was prepared by the Applicant, and as 2% ketoconazole, a commercially available preparation was purchased and used.
As Malassezia restricta, a clinical isolate (R-4) isolated and identified by Teikyo University Institute of Medical Mycology was used. 2.5 mL of a modified Leeming (Leeming and Notman) liquid medium (m-LN. containing olive oil) was added per 1 g wet weight of the precultured strain for suspending therein to give an inoculum. […]
The hair on the back of the animal was shaved, and two inoculation sites (diameter 2 cm) were placed on either side of the back skin symmetrically. […] The skin symptoms were observed through the experiment from the inoculation starting day to the day of sacrifice and recorded by using the score. […] The skin section was successively observed from one end to the other end and the fungal content was evaluated by the criteria shown in the Table. The detection frequency of fungus in each section was determined. […]

N#C/C(=C1/SC[C@@H](c2ccc(Cl)cc2Cl)S1)n1ccnc1 [Luliconazole, (−)-(E)-[(4R)-(2,4-dichlorophenyl)-1,3-dithioran-2-ylidene](1H-imidazol-1-yl)acetonitrile]
mycological treatment effect (PAS-stained skin sections, FIG. 2): showed mycological cure | skin symptom improving effect (FIG. 1): improved skin symptom
